Test results from patent US5478816A, “Liquid vitamin formulations containing vitamin D esters” (Bristol-Myers Squibb Company, priority 1993, dated 1995).
Where “and” joins values, the source holds several entries; their conditions need not be identical. Equal values may be shown once. Read-outs that look alike come from different tables or passages of the source.

Assay: Short-term stability of vitamin D3 and vitamin D3 palmitate in liquid vitamin formulations at 40° C. (HPLC assay)
Format: physicochemical
Conditions: 40° C.; for half-life: liquid vitamin formulation, first order fit of 16 weeks data, read-out: Time in Weeks for 50% Degradation (T50)
Method: In addition to the above, the vitamin formulation contains flavorants, stabilizer of vitamins, and about 1.0% polysorbate 80 as surfactant. As appreciated by the skilled artisan, appropriate overages of vitamins are included in order to assure meeting the label claims. The example composition contains 1.86:1 ratio by weight of glycerine to water. The pH is 5.0 which is adjusted by using an appropriate ratio of ascorbic acid to sodium ascorbate.
Vitamin D was analyzed by a HPLC assay as described by Matthew G. Sliva, et al., "Reversed-Phase Liquid Chromatographic Determination of Vitamin D in Infant Formulas and Enteral Nutritionals," J Assoc. Off. Anal. Chem., 75, 566, 1992, except that saponification conditions of 70° C. for 40 minutes were employed.
Stability of vitamins D3 and D3 palmitate were compared in various vitamin formulations containing different amounts of water and glycerin and at different pHs. The other ingredients and method of pH adjustment were as described in Example 1. The results are in Tables 2-5. Each batch number represents a different liquid vitamin formulation. The amount of glycerin varied between 650 and 850 mg/ml, depending upon the amount of water. "Vit" represents vitamin, "Desc." represents description,"Vit D3" represents vitamin D3, and "Vit D3P" or "D3 P" represents vitamin D3 palmitate. Table 1 lists the half-life (T50) values, i.e., time to degrade to 50% of the starting concentration of vitamins D3 and D3 palmitate at 40° C., These T50 values were calculated by fitting the data to first order degradation rate.

SMILES: C=C1CC[C@H](O)C/C1=C/C=C1\CCC[C@]2(C)[C@@H]([C@H](C)CCCC(C)C)CC[C@@H]12 [Vitamin D3, vitamin D3]
- half-life (pH 3.2, pH 3.2, 252 mg/ml water): 220 days
- half-life (pH 3.2, pH 3.2, 390 mg/ml water): 73.5 days
- half-life (pH 4.2, pH 4.2, 252 mg/ml water): 105 days
- half-life (pH 4.2, pH 4.2, 390 mg/ml water): 44.8 days
- half-life (pH 5, pH 5.0, 252 mg/ml water): 117 days
- half-life (pH 5, pH 5.0, 320 mg/ml water): 86.8 days
- half-life (pH 5, pH 5.0, 390 mg/ml water): 40.6 days
- half-life (pH 5, pH 5.0, 435 mg/ml water): 39.9 days
- half-life (pH 5.6, pH 5.6, 252 mg/ml water): 146 days
- half-life (pH 5.6, pH 5.6, 390 mg/ml water): 44.1 days
- Vitamin D content on storage (pH 3.2, 252 mg/ml water, age 0 weeks, Batch #1 (D3), #2 (D3 P)): 787 IU/ml and 789 IU/ml
- Vitamin D content on storage (pH 3.2, 252 mg/ml water, age 1 week, Batch #1 (D3), #2 (D3 P)): 714 IU/ml and 724 IU/ml
- Vitamin D content on storage (pH 3.2, 252 mg/ml water, age 2 weeks, Batch #1 (D3), #2 (D3 P)): 718 IU/ml and 691 IU/ml
- Vitamin D content on storage (pH 3.2, 252 mg/ml water, age 4 weeks, Batch #1 (D3), #2 (D3 P)): 720 IU/ml and 713 IU/ml
- Vitamin D content on storage (pH 3.2, 252 mg/ml water, age 6 weeks, Batch #1 (D3), #2 (D3 P)): 656 IU/ml and 628 IU/ml
- Vitamin D content on storage (pH 3.2, 252 mg/ml water, age 8 weeks, Batch #1 (D3), #2 (D3 P)): 658 IU/ml and 634 IU/ml
- Vitamin D content on storage (pH 3.2, 252 mg/ml water, age 12 weeks, Batch #1 (D3), #2 (D3 P)): 514 IU/ml and 586 IU/ml
- Vitamin D content on storage (pH 3.2, 252 mg/ml water, age 16 weeks, Batch #1 (D3), #2 (D3 P)): 559 IU/ml and 542 IU/ml
- Vitamin D content on storage (pH 3.2, 390 mg/ml water, age 0 weeks, Batch #3 (D3), #4 (D3 P)): 445 IU/ml and 447 IU/ml
- Vitamin D content on storage (pH 3.2, 390 mg/ml water, age 1 week, Batch #3 (D3), #4 (D3 P)): 429 IU/ml
- Vitamin D content on storage (pH 3.2, 390 mg/ml water, age 2 weeks, Batch #3 (D3), #4 (D3 P)): 392 IU/ml and 399 IU/ml
- Vitamin D content on storage (pH 3.2, 390 mg/ml water, age 4 weeks, Batch #3 (D3), #4 (D3 P)): 359 IU/ml and 369 IU/ml
- Vitamin D content on storage (pH 3.2, 390 mg/ml water, age 8 weeks, Batch #3 (D3), #4 (D3 P)): 282 IU/ml and 271 IU/ml
- Vitamin D content on storage (pH 3.2, 390 mg/ml water, age 12 weeks, Batch #3 (D3), #4 (D3 P)): 207 IU/ml and 211 IU/ml
- Vitamin D content on storage (pH 3.2, 390 mg/ml water, age 16 weeks, Batch #3 (D3), #4 (D3 P)): 160 IU/ml and 149 IU/ml
- Vitamin D content on storage (pH 4.2, 252 mg/ml water, age 0 weeks, Batch #5 (D3), #6 (D3 P)): 450 IU/ml
- Vitamin D content on storage (pH 4.2, 252 mg/ml water, age 1 week, Batch #5 (D3), #6 (D3 P)): 440 IU/ml and 445 IU/ml
- Vitamin D content on storage (pH 4.2, 252 mg/ml water, age 2 weeks, Batch #5 (D3), #6 (D3 P)): 422 IU/ml and 425 IU/ml
- Vitamin D content on storage (pH 4.2, 252 mg/ml water, age 4 weeks, Batch #5 (D3), #6 (D3 P)): 364 IU/ml and 371 IU/ml
- Vitamin D content on storage (pH 4.2, 252 mg/ml water, age 8 weeks, Batch #5 (D3), #6 (D3 P)): 331 IU/ml and 315 IU/ml
- Vitamin D content on storage (pH 4.2, 252 mg/ml water, age 12 weeks, Batch #5 (D3), #6 (D3 P)): 255 IU/ml and 267 IU/ml
- Vitamin D content on storage (pH 4.2, 252 mg/ml water, age 16 weeks, Batch #5 (D3), #6 (D3 P)): 198 IU/ml and 224 IU/ml
- Vitamin D content on storage (pH 4.2, 390 mg/ml water, age 0 weeks, Batch #7 (D3), #8 (D3 P)): 451 IU/ml and 448 IU/ml
- Vitamin D content on storage (pH 4.2, 390 mg/ml water, age 1 week, Batch #7 (D3), #8 (D3 P)): 420 IU/ml and 418 IU/ml
- Vitamin D content on storage (pH 4.2, 390 mg/ml water, age 2 weeks, Batch #7 (D3), #8 (D3 P)): 357 IU/ml and 360 IU/ml
- Vitamin D content on storage (pH 4.2, 390 mg/ml water, age 4 weeks, Batch #7 (D3), #8 (D3 P)): 301 IU/ml and 299 IU/ml
- Vitamin D content on storage (pH 4.2, 390 mg/ml water, age 8 weeks, Batch #7 (D3), #8 (D3 P)): 181 IU/ml and 178 IU/ml
- Vitamin D content on storage (pH 4.2, 390 mg/ml water, age 12 weeks, Batch #7 (D3), #8 (D3 P)): 109 IU/ml and 124 IU/ml
- Vitamin D content on storage (pH 4.2, 390 mg/ml water, age 16 weeks, Batch #7 (D3), #8 (D3 P)): 91.7 IU/ml and 76.1 IU/ml
- Vitamin D content on storage (pH 5.0, 252 mg/ml water, age 0 weeks, Batch #9 (D3), #10 (D3 P)): 840 IU/ml and 851 IU/ml
- Vitamin D content on storage (pH 5.0, 252 mg/ml water, age 1 week, Batch #9 (D3), #10 (D3 P)): 791 IU/ml and 793 IU/ml
- Vitamin D content on storage (pH 5.0, 252 mg/ml water, age 4 weeks, Batch #9 (D3), #10 (D3 P)): 720 IU/ml and 700 IU/ml
- Vitamin D content on storage (pH 5.0, 252 mg/ml water, age 8 weeks, Batch #9 (D3), #10 (D3 P)): 583 IU/ml and 590 IU/ml
- Vitamin D content on storage (pH 5.0, 252 mg/ml water, age 12 weeks, Batch #9 (D3), #10 (D3 P)): 478 IU/ml and 482 IU/ml
- Vitamin D content on storage (pH 5.0, 252 mg/ml water, age 16 weeks, Batch #9 (D3), #10 (D3 P)): 460 IU/ml and 430 IU/ml
- Vitamin D content on storage (pH 5.0, 390 mg/ml water (so in the source), age 0 weeks, Batch #11 (D3), #12 (D3 P)): 454 IU/ml and 449 IU/ml
- Vitamin D content on storage (pH 5.0, 390 mg/ml water (so in the source), age 1 week, Batch #11 (D3), #12 (D3 P)): 432 IU/ml and 423 IU/ml
- Vitamin D content on storage (pH 5.0, 390 mg/ml water (so in the source), age 2 weeks, Batch #11 (D3), #12 (D3 P)): 424 IU/ml and 426 IU/ml
- Vitamin D content on storage (pH 5.0, 390 mg/ml water (so in the source), age 4 weeks, Batch #11 (D3), #12 (D3 P)): 377 IU/ml and 371 IU/ml
- Vitamin D content on storage (pH 5.0, 390 mg/ml water (so in the source), age 8 weeks, Batch #11 (D3), #12 (D3 P)): 291 IU/ml and 281 IU/ml
- Vitamin D content on storage (pH 5.0, 390 mg/ml water (so in the source), age 12 weeks, Batch #11 (D3), #12 (D3 P)): 230 IU/ml and 237 IU/ml
- Vitamin D content on storage (pH 5.0, 390 mg/ml water (so in the source), age 16 weeks, Batch #11 (D3), #12 (D3 P)): 196 IU/ml and 182 IU/ml
- Vitamin D content on storage (pH 5.0, 390 mg/ml water, age 0 weeks, Batch #13 (D3), #14 (D3 P)): 453 IU/ml and 452 IU/ml
- Vitamin D content on storage (pH 5.0, 390 mg/ml water, age 1 week, Batch #13 (D3), #14 (D3 P)): 413 IU/ml and 410 IU/ml
- Vitamin D content on storage (pH 5.0, 390 mg/ml water, age 2 weeks, Batch #13 (D3), #14 (D3 P)): 363 IU/ml and 356 IU/ml
- Vitamin D content on storage (pH 5.0, 390 mg/ml water, age 4 weeks, Batch #13 (D3), #14 (D3 P)): 298 IU/ml and 305 IU/ml
- Vitamin D content on storage (pH 5.0, 390 mg/ml water, age 8 weeks, Batch #13 (D3), #14 (D3 P)): 166 IU/ml and 168 IU/ml
- Vitamin D content on storage (pH 5.0, 435 mg/ml water, age 0 weeks, Batch #15 (D3), #16 (D3 P)): 450 IU/ml and 453 IU/ml
- Vitamin D content on storage (pH 5.0, 435 mg/ml water, age 1 week, Batch #15 (D3), #16 (D3 P)): 400 IU/ml and 426 IU/ml
- Vitamin D content on storage (pH 5.0, 435 mg/ml water, age 2 weeks, Batch #15 (D3), #16 (D3 P)): 370 IU/ml
- Vitamin D content on storage (pH 5.0, 435 mg/ml water, age 4 weeks, Batch #15 (D3), #16 (D3 P)): 285 IU/ml and 291 IU/ml
- Vitamin D content on storage (pH 5.0, 435 mg/ml water, age 8 weeks, Batch #15 (D3), #16 (D3 P)): 187 IU/ml
